Columns and labels:
[1] = system: MCA/BHT-induced lung tumors; experiment: MCA/BHT lung tumorigenesis protocol, oral Iloprost in diet; assay type: in vivo, FVB/N mice
Method: (§1) Transgenic mice (Tg^+) and wildtype littermates (Tg^−), 8 to 12 weeks of age, were subjected to two distinct lung carcinogenesis protocols. In the first model, urethane (ethyl carbamate), a carcinogen which selectively induces pulmonary adenomas through genetic mutations in the oncogene ras, was administered in a single intraperitoneal (ip) dose. […] BHT is a tumor promoter and induces reversible pulmonary damage characterized by alveolar type I cell necrosis, selective pulmonary inflammation, and hyperplasia of alveolar type II cells. Controls for both models consisted of mice injected with vehicle alone. The oral administration of Iloprost was investigated and found to have a similar beneficial effects to PGIS overexpression. FVB/N mice were fed a diet of low (0.1%) or high (3.0%) dose Iloprost continuously throughout the experiment and then were subjected to tumorigenesis protocols with either urethane or MCA/BHT. At the conclusion of the experiments, animals were euthanized and tumors enumerated.

[2] = system: urethane-induced lung tumors; experiment: Urethane lung tumorigenesis protocol, oral Iloprost in diet; assay type: in vivo, FVB/N mice
Method: as §1

[3] = system: cancer metastasis to the lung; settings: Iloprost administered to mice; cited from earlier work
[4] = 3.0% Iloprost diet compared with 0.1%
[5] = diet of low (0.1%) or high (3.0%) dose Iloprost continuously

CC#CCC(C)[C@H](O)/C=C/[C@@H]1[C@H]2C/C(=C/CCCC(=O)O)C[C@H]2C[C@H]1O (some centres unmarked) [Iloprost]
reduction in multiplicity, high versus low dose [1, 4]: greater reduction in multiplicity | tumor multiplicity [1, 5]: significant reduction in tumor multiplicity | reduction in multiplicity, high versus low dose [2, 4]: greater reduction in multiplicity | tumor multiplicity [2, 5]: significant reduction in tumor multiplicity | prevention of cancer metastasis to the lung [3]: did not prevent cancer metastasis to the lung
